Measurements: ChEMBL document CHEMBL1201862, “PubChem BioAssay data set” (2004)
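Grown in 96-well plates, cells were treated for 48 hours with each compound at five concentrations. Insufficient inhibition: endpoint recorded as highest concentration tested. GI50 is the concentration that inhibits growth by half.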 Activity calls are given as the source filed them. No stated cut-off is given here; in the data, active = GI50 up to about 1.1 µM and inactive = higher. Bridge positions count the residues as written; N and C are the ends. Square brackets hold non-standard residues; d marks the D form. Peptide text beside a SMILES is read from it. I, II: the chains in the order shown. * marks the point of attachment. Quinoxaline2carbonyl = O=C(c1cnc2ccccc2n1)*; NMeV = CN[CH](C(=O)O)C(C)C; NMeC = CN[CH](CS)C(=O)O

Experiments:
Assay in all cases: NCI anticancer screen, dose series, 48 h
SK-OV-3 = tested on: SK-OV-3
MOLT-4 = tested on: MOLT-4
SR = tested on: SR
CAKI-1 = tested on: CAKI-1
COLO 205 = tested on: COLO 205
T47D = tested on: T47D
SF-539 = tested on: SF-539
NCI-H460 = tested on: NCI-H460
SK-MEL-5 = tested on: SK-MEL-5
786-0 = tested on: 786-0
MDA-N = tested on: MDA-N
UACC-62 = tested on: UACC-62
M14 = tested on: M14
TK-10 = tested on: TK-10
HCT-15 = tested on: HCT-15
RXF 393 = tested on: RXF 393
KM12 = tested on: KM12
EKVX = tested on: EKVX
UACC-257 = tested on: UACC-257
SN12C = tested on: SN12C
SW-620 = tested on: SW-620
CCRF-CEM = tested on: CCRF-CEM
SK-MEL-2 = tested on: SK-MEL-2
HCT-116 = tested on: HCT-116
K562 = tested on: K562
BT-549 = tested on: BT-549
SF-268 = tested on: SF-268
NCI-H226 = tested on: NCI-H226
OVCAR-8 = tested on: OVCAR-8
SNB-19 = tested on: SNB-19
MDA-MB-435 = tested on: MDA-MB-435
HOP-92 = tested on: HOP-92
A498 = tested on: A498
HL-60 = tested on: HL-60
PC-3 = tested on: PC-3
SNB-75 = tested on: SNB-75
U-251 = tested on: U-251
SK-MEL-28 = tested on: SK-MEL-28
IGROV-1 = tested on: IGROV-1
Malme-3M = tested on: Malme-3M
A549 = tested on: A549
NCI/ADR-RES = tested on: NCI/ADR-RES
SF-295 = tested on: SF-295
DU-145 = tested on: DU-145
ACHN = tested on: ACHN
OVCAR-4 = tested on: OVCAR-4
UO-31 = tested on: UO-31
OVCAR-5 = tested on: OVCAR-5
RPMI-8226 = tested on: RPMI-8226
MDA-MB-231 = tested on: MDA-MB-231
OVCAR-3 = tested on: OVCAR-3
Hs-578T = tested on: Hs-578T
NCI-H23 = tested on: NCI-H23
MCF7 = tested on: MCF7
HOP-62 = tested on: HOP-62
HCC 2998 = tested on: HCC 2998
NCI-H522 = tested on: NCI-H522
HT-29 = tested on: HT-29
LOX IMVI = tested on: LOX IMVI

## CC1NC(=O)C(NC(=O)c2cnc3ccccc3n2)COC(=O)C(C(C)C)N(C)C(=O)C2CSSCC(C(=O)N(C)C(C(C)C)C(=O)OCC(NC(=O)c3cnc4ccccc4n3)C(=O)NC(C)C(=O)N2C)N(C)C1=O (centres undefined) (I: Quinoxaline2carbonyl-SA[NMeC][NMeV] / II: Quinoxaline2carbonyl-SA[NMeC][NMeV]; ester I:1-II:C, I:C-II:1; disulfide I:3-II:3; configuration not given here)
SK-OV-3
  GI50: < 10 nM (active)
MOLT-4
  GI50: < 10 nM (active)
SR
  GI50: 114 nM (active)
CAKI-1
  GI50: < 10 nM (active)
COLO 205
  GI50: < 10 nM (active)
T47D
  GI50: < 10 nM (active)
SF-539
  GI50: < 10 nM (active)
NCI-H460
  GI50: < 10 nM (active)
SK-MEL-5
  GI50: 31.6 nM (active)
786-0
  GI50: < 10 nM (active)
MDA-N
  GI50: < 10 nM (active)
UACC-62
  GI50: < 10 nM (active)
M14
  GI50: < 10 nM (active)
TK-10
  GI50: < 10 nM (active)
HCT-15
  GI50: < 10 nM
RXF 393
  GI50: < 10 nM (active)
KM12
  GI50: < 10 nM (active)
EKVX
  GI50: < 10 nM (active)
UACC-257
  GI50: < 10 nM (active)
SN12C
  GI50: < 10 nM (active)
SW-620
  GI50: < 10 nM (active)
CCRF-CEM
  GI50: < 10 nM (active)
SK-MEL-2
  GI50: < 10 nM (active)
HCT-116
  GI50: < 10 nM (active)
K562
  GI50: < 10 nM (active)
BT-549
  GI50: < 10 nM (active)
SF-268
  GI50: < 10 nM (active)
NCI-H226
  GI50: < 10 nM (active)
OVCAR-8
  GI50: < 10 nM (active)
SNB-19
  GI50: < 10 nM (active)
MDA-MB-435
  GI50: < 10 nM (active)
HOP-92
  GI50: < 10 nM (active)
A498
  GI50: < 10 nM (active)
HL-60
  GI50: < 10 nM (active)
PC-3
  GI50: < 10 nM (active)
SNB-75
  GI50: < 10 nM (active)
U-251
  GI50: < 10 nM (active)
SK-MEL-28
  GI50: < 10 nM (active)
IGROV-1
  GI50: < 10 nM (active)
Malme-3M
  GI50: < 10 nM (active)
A549
  GI50: < 10 nM (active)
NCI/ADR-RES
  GI50: < 10 nM (active)
SF-295
  GI50: < 10 nM (active)
DU-145
  GI50: < 10 nM (active)
ACHN
  GI50: < 10 nM (active)
OVCAR-4
  GI50: < 10 nM (active)
UO-31
  GI50: < 10 nM (active)
OVCAR-5
  GI50: < 10 nM (active)
RPMI-8226
  GI50: < 10 nM (active)
MDA-MB-231
  GI50: < 10 nM (active)
OVCAR-3
  GI50: < 10 nM (active)
Hs-578T
  GI50: < 10 nM (active)
NCI-H23
  GI50: < 10 nM (active)
MCF7
  GI50: < 10 nM (active)
HOP-62
  GI50: < 10 nM (active)
HCC 2998
  GI50: < 10 nM (active)
NCI-H522
  GI50: < 10 nM (active)
HT-29
  GI50: < 10 nM (active)
LOX IMVI
  GI50: < 10 nM (active)
